Data published in US20220370470A1 (WisTa Laboratories Ltd., priority 2019, published 2022).
Counter-ions that a name gives are not always drawn.

Tests used:
[1] = tested on: α-synuclein; assay: Immunohistochemistry of α-synuclein, wild-type mice; type: in vivo; parameters: key: ‘—’ indicates no effect; settings: LMTM 5 or 15 mg/kg/day alone or following chronic rivastigmine 0.1 or 0.5 mg/kg/day, approximate rounded percentages
Procedure: (§1) Wild-type and L1 mice (n=7-16 for each group) were pre-treated with rivastigmine (0.1 or 0.5 mg/kg/day) or memantine (2 or 20 mg/kg/day) or vehicle for 5 weeks by gavage. For the following 6 weeks, LMTM (5 and 15 mg/kg) or vehicle were added to this daily treatment regime, also by gavage. Animals were tested behaviourly during weeks 10 and 11 using a problem solving task in the open field water maze and then sacrificed for immunohistochemical and other tissue analyses.
(§2) Translating doses from mice to humans requires consideration of a number of factors. […] The higher dose of 15 mg/kg/day is generally required for LMTM to be fully effective in the L1 mouse model (Melis et al., 2015a). […] Tissue sectioned for immunohistochemistry was labelled with antibody and processed using Image J to determine protein expression densitometrically. Data are presented as Z-score transformations without units.

[2] = tested on: ACh levels in the hippocampus; assay: Hippocampal ACh levels with scopolamine blocking M2/M4 negative feedback receptors; type: in vivo, wild type mice
[3] = tested on: acetylcholine (ACh) levels in hippocampus; assay: ACh levels in hippocampus, microdialysis probe and HPLC, wild-type mice; type: in vivo
Procedure: For measurement of acetylcholine (ACh) levels in hippocampus, animals (wild-type or L1) were treated with LMTM (5 mg/kg/day for 2 weeks) after prior treatment for 2 weeks with or without rivastigmine (0.5 mg/kg/day). Rivastigmine was administered subcutaneously with an Alzet minipump whereas LMTM was administered by oral gavage. Levels of ACh were measured in hippocampus using an implanted microdialysis probe and HPLC analysis of the extracellular fluid.
Data are presented as group averages and standard errors of mean and were analysed using parametric statistics, with alpha set to 0.05.

[4] = tested on: mitochondrial complex IV; assay: Mitochondrial complex IV activity, wild-type mice; type: in vivo; settings: LMTM 5 or 15 mg/kg/day alone or following chronic rivastigmine 0.1 or 0.5 mg/kg/day, approximate rounded percentages
Procedure: as §1

[5] = tested on: SNARE complex proteins (SNAP25, syntaxin and VAMP2); assay: Immunohistochemistry of SNARE complex proteins, wild-type mice; type: in vivo; parameters: key: ‘—’ indicates no effect; settings: LMTM 5 or 15 mg/kg/day alone or following chronic rivastigmine 0.1 or 0.5 mg/kg/day, approximate rounded percentages
Procedure: as §1, §2

[6] = tested on: wild-type mice; assay: Behaviour, problem solving task in the open field water maze, wild-type mice; type: in vivo; settings: LMTM 5 or 15 mg/kg/day alone or following chronic rivastigmine 0.1 or 0.5 mg/kg/day, approximate rounded percentages
Procedure: as §1

[7] = tested on: synaptophysin; assay: Immunohistochemistry of synaptophysin, wild-type mice; type: in vivo
Procedure: FIG. 1. Treatment effects of LMTM alone or following chronic pretreatment with rivastigmine in wild-type mice on hippocampal levels of acetylcholine (A) or synaptophysin levels measured immunohistochemically as the mean in hippocampus, visual cortex, diagonal band and septum (B). (**, p<0.01; ***, p<0.001).
as §1, §2

## CN(C)c1ccc2c(c1)Sc1cc(N(C)C)ccc1N2 [LMTM, hydromethylthionine mesylate]
[1]
  α-Synuclein: —
[2]; wild type mice, scopolamine blocking M2/M4 negative feedback receptors, 100 nanomolar rivastigmine in perfusion fluid
  increase in ACh levels in scopolamine experiments: less than that seen with rivastigmine alone
[3]; LMTM after prior treatment with rivastigmine (0.5 mg/kg/day)
  reduction in basal ACh levels in hippocampus: 30%
[3]; LMTM treatment alone (5 mg/kg/day for 2 weeks), significant
  increase in basal ACh levels in hippocampus: 2 fold
[4]
  Mitochondrial complex IV: did not show any increase and —
[5]
  SNARE complex: —
[6]
  Behaviour: not associated with improvement in spatial recognition memory and —
[7]; LMTM given against a background of prior treatment with rivastigmine
  change in mean synaptophysin levels: statistically significant reduction of the same magnitude
[7]; hippocampus, visual cortex, diagonal band and septum, LMTM treatment alone
  increase in mean synaptophysin levels: 3 fold

## CN1[C@@H]2C[C@@H](OC(=O)[C@H](CO)c3ccccc3)C[C@H]1[C@@H]1O[C@@H]12 [scopolamine, reference compound]
[2]; hippocampus, scopolamine 1 μM added to the perfusion fluid containing 100 nanomolar rivastigmine
  rise in ACh levels: 3-5 fold
